In PubChem BioAssay AID330 (DTP/NCI, 2004):
Where “and” joins values, the source holds several entries; their conditions need not be identical. Identical values can stand only once. Inconclusive results and toxic doses are left out. How the source made its calls: active means survival T/C of 150% or more; inactive means T/C below 125% in these data. Peptide text beside a SMILES is read from it.

System: P388 leukemia ip, CD2F1 mice, survival T/C
Test: NCI In Vivo Anticancer Drug Screen. Data for tumor model P388 Leukemia (intraperitoneal) in CD2F1 (CDF1) mice
Conditions: endpoint: median survival time, higher = longer survival
Outline: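 Mice carrying the transplanted tumor received test compound or vehicle. Survival was recorded in each group, and the value is the treated-group measurement divided by that of the vehicle-treated control group.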

[1] = dose: 12.5 mg/kg/injection, schedule: Q01DX005 (ip), vehicle: Klucel (hydroxypropylcellulose) (HPC)
[2] = dose: 25.0 mg/kg/injection, schedule: Q01DX005 (ip), vehicle: Klucel (hydroxypropylcellulose) (HPC)
[3] = dose: 50.0 mg/kg/injection, schedule: Q01DX005 (ip), vehicle: Klucel (hydroxypropylcellulose) (HPC)
[4] = dose: 50.0 mg/kg/injection, schedule: Q01DX005 (ip), vehicle: saline with Tween-80
[5] = dose: 100.0 mg/kg/injection, schedule: Q01DX005 (ip), vehicle: saline with Tween-80
[6] = dose: 100.0 mg/kg/injection, schedule: Q04DX003 (ip), vehicle: saline
[7] = dose: 200.0 mg/kg/injection, schedule: Q04DX003 (ip), vehicle: saline
[8] = dose: 400.0 mg/kg/injection, schedule: Q04DX003 (ip), vehicle: saline
[9] = dose: 25.0 mg/kg/injection, schedule: Q01DX009 (ip), vehicle: saline with Tween-80
[10] = dose: 50.0 mg/kg/injection, schedule: Q01DX009 (ip), vehicle: saline with Tween-80
[11] = dose: 100.0 mg/kg/injection, schedule: Q01DX009 (ip), vehicle: saline with Tween-80

Measured: T/C

C=C1C[C@]23C[C@H](O)[C@]4(O)[C@@]5(C)C[C@H](O)C[C@]46C(C2[C@@H]1[C@@H](OC(=O)/C(C)=C/C)[C@@H](OC(=O)/C(C)=C/C)[C@H]36)N(C)C5 (stereo partly specified)
inactive: dose: 0.5 mg/kg/injection, schedule: Q01DX005 (ip), vehicle: saline + alcohol 102 % of control | dose: 1.0 mg/kg/injection, schedule: Q01DX005 (ip), vehicle: saline + alcohol 105 % of control and 106 % of control | dose: 2.0 mg/kg/injection, schedule: Q01DX005 (ip), vehicle: saline + alcohol 105 % of control and 109 % of control | dose: 4.0 mg/kg/injection, schedule: Q01DX005 (ip), vehicle: saline + alcohol 103 % of control and 109 % of control | dose: 8.0 mg/kg/injection, schedule: Q01DX005 (ip), vehicle: saline + alcohol 103 % of control

CC(O)CC1C=CCC(CC(O)c2ccccc2)N1C (stereo unspecified)
inactive: [1] 102 % of control | [2] 100 % of control | [3] 105 % of control

CCCCC/C=N/N(C)C=O
inactive: dose: 100.0 mg/kg/injection, schedule: Q04DX002 (ip), vehicle: saline 103 % of control | dose: 200.0 mg/kg/injection, schedule: Q04DX002 (ip), vehicle: saline 103 % of control | dose: 400.0 mg/kg/injection, schedule: Q04DX002 (ip), vehicle: saline 100 % of control

CN1CCC(COC(=O)CC(C)(C)C)C1 (stereo unspecified)
inactive: dose: 3.13 mg/kg/injection, schedule: Q01DX009 (ip), vehicle: water 105 % of control | dose: 6.25 mg/kg/injection, schedule: Q01DX009 (ip), vehicle: water 100 % of control | dose: 12.5 mg/kg/injection, schedule: Q01DX009 (ip), vehicle: water 99 % of control | dose: 25.0 mg/kg/injection, schedule: Q01DX009 (ip), vehicle: water 101 % of control | dose: 50.0 mg/kg/injection, schedule: Q01DX009 (ip), vehicle: water 105 % of control | dose: 100.0 mg/kg/injection, schedule: Q01DX009 (ip), vehicle: water 101 % of control

COC(=O)N1C(C)=Cc2ccccc2C1C#N (stereo unspecified)
inactive: dose: 50.0 mg/kg/injection, schedule: Q01DX009 (ip), vehicle: suspension in saline 100 % of control | dose: 100.0 mg/kg/injection, schedule: Q01DX009 (ip), vehicle: suspension in saline 98 % of control | dose: 200.0 mg/kg/injection, schedule: Q01DX009 (ip), vehicle: suspension in saline 95 % of control

CC(C)(C)SSCCN
inactive: [4] 103 % of control | [5] 109 % of control

CC1CC2(CC(COc3ccccc3C(N)=O)OC2=O)C(=O)O1 (stereo unspecified)
inactive: [4] 100 % of control | [5] 100 % of control | dose: 200.0 mg/kg/injection, schedule: Q01DX005 (ip), vehicle: saline with Tween-80 97 % of control

C(=C\C1N=C1c1ccccc1)/c1ccc2ccccc2c1 (stereo unspecified)
inactive: dose: 50.0 mg/kg/injection, schedule: Q04DX002 (ip), vehicle: suspension in saline 99 % of control | dose: 100.0 mg/kg/injection, schedule: Q04DX002 (ip), vehicle: suspension in saline 97 % of control | dose: 200.0 mg/kg/injection, schedule: Q04DX002 (ip), vehicle: suspension in saline 99 % of control

CC(NC(=O)C(C)NC(=O)C(N)CCC(=O)O)C(=O)O (stereo not drawn) (H-Glu-Ala-Ala-OH; configuration not given here)
inactive: dose: 50.0 mg/kg/injection, schedule: Q01DX005 (ip), vehicle: saline 104 % of control | dose: 100.0 mg/kg/injection, schedule: Q01DX005 (ip), vehicle: saline 104 % of control | dose: 200.0 mg/kg/injection, schedule: Q01DX005 (ip), vehicle: saline 103 % of control

C[C@H]1CC[C@@H]2[C@@H](C)[C@H]3[C@H](C[C@H]4[C@@H]5CC=C6C[C@@H](O)CC[C@]6(C)[C@H]5C[C@H](O)[C@]34C)N2C1
inactive: [2] 101 % of control and 105 % of control

Cc1ccc(S(=O)(=O)N(CCOc2c3occc3cc3ccc(=O)oc23)CCN(CCN(CCOc2c3occc3cc3ccc(=O)oc23)S(=O)(=O)c2ccc(C)cc2)S(=O)(=O)c2ccc(C)cc2)cc1
inactive: dose: 100.0 mg/kg/injection, schedule: Q01DX001 (ip), vehicle: saline with Tween-80 87 % of control | dose: 200.0 mg/kg/injection, schedule: Q01DX001 (ip), vehicle: saline with Tween-80 86 % of control

CS(=O)(=O)/C=C/C([N+](=O)[O-])[N+](=O)[O-]
inactive: [6] 109 % of control | [7] 104 % of control | [8] 92 % of control

CC(=O)OC1C=CC(=O)C1 (stereo unspecified)
inactive: dose: 7.5 mg/kg/injection, schedule: Q01DX005 (ip), vehicle: saline with Tween-80 122 % of control | dose: 15.0 mg/kg/injection, schedule: Q01DX005 (ip), vehicle: saline with Tween-80 116 % of control

COc1ccc(C2CC(=O)N(c3cccc(C)n3)C(=O)C2)cc1
inactive: [6] 100 % of control | [7] 100 % of control | [8] 108 % of control

COC(=O)C1=C(C)NC2(C)SC1C(C)C2C(=O)OC (stereo unspecified)
inactive: dose: 12.5 mg/kg/injection, schedule: Q01DX009 (ip), vehicle: saline with Tween-80 92 % of control and 93 % of control | [9] 101 % of control and 93 % of control | [10] 90 % of control and 97 % of control | [11] 87 % of control and 90 % of control

NC1=NCc2c(sc3c2CCCC3)N1
inactive: [1] 104 % of control | [2] 104 % of control | [3] 98 % of control and 103 % of control

COC(=O)CC1CSCC1=O (stereo unspecified)
inactive: dose: 60.0 mg/kg/injection, schedule: Q01DX005 (ip), vehicle: saline with Tween-80 105 % of control | dose: 120.0 mg/kg/injection, schedule: Q01DX005 (ip), vehicle: saline with Tween-80 100 % of control | dose: 240.0 mg/kg/injection, schedule: Q01DX005 (ip), vehicle: saline with Tween-80 105 % of control

Clc1ccc(CN2COc3c(ccc4ccccc34)C2)cc1
inactive: dose: 100.0 mg/kg/injection, schedule: Q04DX003 (ip), vehicle: Klucel (hydroxypropylcellulose) (HPC) 103 % of control | dose: 200.0 mg/kg/injection, schedule: Q04DX003 (ip), vehicle: Klucel (hydroxypropylcellulose) (HPC) 94 % of control | dose: 400.0 mg/kg/injection, schedule: Q04DX003 (ip), vehicle: Klucel (hydroxypropylcellulose) (HPC) 94 % of control

COC(=O)c1c(C)oc(C)c1-c1ccc(OCc2ccccc2)c(OC)c1
inactive: dose: 60.0 mg/kg/injection, schedule: Q01DX005 (ip), vehicle: Klucel (hydroxypropylcellulose) (HPC) 114 % of control | dose: 120.0 mg/kg/injection, schedule: Q01DX005 (ip), vehicle: Klucel (hydroxypropylcellulose) (HPC) 98 % of control | dose: 240.0 mg/kg/injection, schedule: Q01DX005 (ip), vehicle: Klucel (hydroxypropylcellulose) (HPC) 94 % of control

OCC1OC(OC2C(CO)OC(Sc3ccccc3)C(O)C2O)C(O)C(O)C1O (stereo unspecified)
inactive: [3] 101 % of control | dose: 100.0 mg/kg/injection, schedule: Q01DX005 (ip), vehicle: Klucel (hydroxypropylcellulose) (HPC) 105 % of control | dose: 200.0 mg/kg/injection, schedule: Q01DX005 (ip), vehicle: Klucel (hydroxypropylcellulose) (HPC) 105 % of control

O=C1CCCC2C3CC(CN12)C1CCCCN1C3 (stereo unspecified)
inactive: [9] 100 % of control | [10] 120 % of control | [11] 105 % of control

CCCCCCCCCNCC(O)c1cc2c(c3ccccc13)CCCC2 (stereo unspecified)
inactive: dose: 6.25 mg/kg/injection, schedule: Q01DX005 (ip), vehicle: Klucel (hydroxypropylcellulose) (HPC) 92 % of control | [1] 90 % of control | [2] 99 % of control

C=C1C(=O)OC2/C=C(\C)C3OC3/C=C(/C(=O)OC)C(O)C(OC(=O)C3(C)OC3C)C12 (stereo unspecified)
inactive: dose: 3.0 mg/kg/injection, schedule: Q01DX009 (ip), vehicle: Klucel (hydroxypropylcellulose) (HPC) 115 % of control and 123 % of control | dose: 6.0 mg/kg/injection, schedule: Q01DX009 (ip), vehicle: Klucel (hydroxypropylcellulose) (HPC) 120 % of control and 123 % of control | dose: 12.0 mg/kg/injection, schedule: Q01DX009 (ip), vehicle: Klucel (hydroxypropylcellulose) (HPC) 119 % of control | dose: 24.0 mg/kg/injection, schedule: Q01DX009 (ip), vehicle: Klucel (hydroxypropylcellulose) (HPC) 94 % of control
